This note sets out measurements from US20230103631A1, “PEPTIDES AS SELECTIVE GIP RECEPTOR AGONISTS” (Sanofi, priority 2020, published 2023).

This data set can be described thus: Pharmacokinetic evaluation in monkeys. It counts as in vivo. The settings on record: male, cynomolgus monkey, plasma. How it is done:
Compounds were administered in a suitable buffer system, e.g. PBS buffer solution at pH7.4 or DPBS solution at concentrations of 0.05, 0.1, 0.5 or 1 mg/ml depending on dose, species and administration volume.
Male cynomolgus monkeys were dosed 0.1 mg/kg intravenously (i.v.) or subcutaneously (s.c.). Blood samples were collected after 0.083, 0.25, 0.5, 1, 2, 4, 8, 24, 32, 48, and 72 h post i.v. application and 0.5, 1, 2, 4, 8, 24, 48, 72, and 96 h post s.c. application, respectively. Plasma samples were analyzed after protein precipitation via liquid chromatography mass spectrometry (LC/MS). PK parameters and half-life were calculated using Phoenix-WinNonlin 8.1 using a non-compartmental model and linear trapezoidal interpolation calculation.
Pharmacokinetic profiles were determined as described in Methods.

A word on the AUC(0-t): it is exposure summed from dosing to a finite time, without extrapolation to infinity. Read a high AUC(0-t) as more exposure. Usually Cmax stands for the peak of the concentration-time curve. The half-life is the time needed for the level to fall by half in the phase considered. Read a high half-life as slow loss. Broadly, the bioavailability is dose-corrected exposure relative to a reference, in per cent. A low value points to poor availability.

*1 amine or outer side, *2 acyl side, *3 side chain or, on linkers, in order; H or OH if unused. Where a SMILES comes first, the peptide text is derived from it. Side-chain parts run from the residue outwards. [ ]: non-standard residue; d: D form. The star is where a group is joined. C18 diacid = O=C(O)CCCCCCCCCCCCCCCCC(=O)*; γGlu = O=C(O)[C@H](CCC(=O)[*:2])N[*:1]; AEEA = NCCOCCOCC(=O)O; Aib = CC(C)(N)C(=O)O

As to `CC[C@H](C)[C@H](NC(=O)[C@H](Cc1ccccc1)NC(=O)[C@H](CCC(=O)O)NC(=O)[C@H](CCC(=O)O)NC(=O)[C@H](CCC(N)=O)NC(=O)[C@H](Cc1c[nH]cn1)NC(=O)[C@@H](NC(=O)[C@H](CCCNC(=N)N)NC(=O)[C@H](CC(=O)O)NC(=O)[C@H](CCCCNC(=O)COCCOCCNC(=O)COCCOCCNC(=O)CC[C@H](NC(=O)CCCCCCCCCCCCCCCCC(=O)O)C(=O)O)NC(=O)C(C)(C)NC(=O)[C@@H](NC(=O)[C@H](CO)NC(=O)[C@H](CC(C)C)NC(=O)[C@H](CC(=O)O)NC(=O)[C@H](CO)NC(=O)[C@@H](NC(=O)[C@H](Cc1ccccc1)NC(=O)[C@@H](NC(=O)CNC(=O)[C@H](CCC(=O)O)NC(=O)C(C)(C)NC(=O)[C@@H](N)Cc1ccc(O)cc1)[C@@H](C)O)[C@@H](C)CC)[C@@H](C)CC)[C@@H](C)CC)C(=O)N[C@@H](CCC(=O)O)C(=O)N[C@@H](Cc1c[nH]c2ccccc12)C(=O)N[C@@H](CC(C)C)C(=O)N[C@@H](CC(C)C)C(=O)N[C@@H](C)C(=O)N[C@@H](CCC(N)=O)C(=O)NCC(=O)N1CCC[C@H]1C(=O)N[C@@H](CO)C(=O)N[C@@H](CO)C(=O)NCC(=O)N[C@@H](C)C(=O)N1CCC[C@H]1C(=O)N1CCC[C@H]1C(=O)N1CCC[C@H]1C(=O)N[C@@H](CO)C(N)=O` [SEQ ID NO: 9, H2N-Y-Aib-E-G-T-F-I-S-D-I-S-I-Aib-K[{AEEA}2-gGlu-C18OH]-DRIHQEEFIEWILAQGPSSGAPPPS-NH2] (H-Y[Aib]EGTFISDLSI[Aib]K([AEEA-AEEA-γGlu-C18 diacid])DRIHQEEFIEWLLAQGPSSGAPPPS-NH2), under “iv, 0.1 mg/kg i.v.”, the AUC(0-t) is 149 µg·h/mL, the Cmax was 6740 ng/mL and the half-life is 51.4 h. In addition, the clearance (iv, 0.1 mg/kg i.v., read-out: CI (converted)) is 10.7 mL/day/kg. Under “sc, 0.1 mg/kg s.c.”, this compound showed an exposure AUC(0-t) of 122 µg·h/mL, a Cmax of 1800 ng/mL, a bioavailability of 83% and a half-life of 58.4 h.
